Assay results taken from patent US8772226B2, “Methods and compositions for the detection of cancer” (The Johns Hopkins University, priority 2009, dated 2014).
Blank lines part the entries; values can stand above or below the molecule they belong to. Starred links: 1 amine or outer side, 2 acyl side, 3 side chain; linkers in the order of their positions; H or OH if unused. Non-standard residues stand in square brackets, D forms with d. Residues, ends and D or L forms follow the SMILES beside them. No end group written: not given here. *: point of attachment. X1 = C/C=C(/C)C(=O)O[C@H]1C(C)=C2[C@H]([C@@H]1OC(=O)CCCCCCC)[C@@](C)(OC(C)=O)C[C@H](OC(=O)Cc1ccc(O)c(CCCCCN*)c1)[C@@]1(O)[C@H]2OC(=O)[C@@]1(C)O; γGlu = O=C(O)[C@H](CCC(=O)[*:2])N[*:1]; Morpholide = C1CN(*)CCO1; PhADT = not defined here; CO = O=C([*:1])[*:2]

What was measured:
[1] = biological target: sarcoplasmic reticulum (SR) and endoplasmic reticulum (ER) Ca2+-ATPase (SERCA) pump; details: SERCA pump of skeletal, cardiac, muscle and brain microsomes; read-out: apparent dissociation constant; cited from earlier work
[2] = Peptide stability in serum; type: in vitro ADME
Description: (§1) Some preferred peptides include a PSMA-hydrolyzable, a-linked dipeptide “cap” that are not substrates for GGH, and are more specific PSMA substrates. Combination a- and side chain-linked PSMA substrates can be highly efficient and specific. […] A number of aspartate- and glutamate-containing linkers are depicted in FIG. 1. These particular linkers can be bonded to amine groups on therapeutic drugs.

[3] = Peptide stability to hydrolysis in human plasma; type: in vitro ADME
Description: as §1

[4] = Peptide stability to hydrolysis in mouse plasma; type: in vitro ADME
Description: as §1

SERCA pump = biological target: T1, SERCA pump (Oryctolagus cuniculus, UniProt P04191); test: Microsomal assay of SERCA pump inhibition compared to TG; type: biochemical
T1 construct: from tissue; host or cells: microsomes
Protocol: FIG. 6. Microsomal assay comparing inhibition of SERCA pump by compound 14 and TG over a range of concentrations.
All materials were purified by column chromatography with structure confirmed by NMR analysis and mass spectroscopy. The purified phenolic TG analog 14 was then tested in a previously described microsomal assay system to assess inhibition of the SERCA pump compared to TG, FIG. 6.

SERCA = SERCA inhibition compared to TG (preliminary / earlier data); type: biochemical
CWR22H tumor = test: Biodistribution in CWR22H tumor bearing mice; type: in vivo; details: % Injected Dose/gram tissue, five days after single intravenous dose of 2 μmole (120 mg/kg) of prodrug
Protocol: FIGS. 4A and 4B are (A) selective accumulation of 12ADT-Asp and 12ADT-Asp-Glu in tumor tissue compared to indicated normal tissue five days after single intravenous dose of 2 μmole (120 mg/kg) (FIG. 4A discloses “Asp-Glu*Glu*Glu*Glu” as SEQ ID NO: 57); and (B) biodistribution of TG species (sum of 12ADT-Asp, 12ADT-Asp-Glu and 12ADT-Asp-Glu*Glu*Glu*Glu (SEQ ID NO: 57)) in CWR22H tumor bearing mice. Data presented as % Initial dose (ID)/gram and tumor/tissue ratios (n=4 mice).
In the course of developing a PSMA-activated TG therapy, a prodrug that was readily hydrolyzed by PSMA and selectively toxic to PSMA-producing human prostate cancers in vitro and in vivo was identified. Tissue levels of the TG analog (12ADT-Asp) that is released from the peptide carrier by PSMA were analyzed. See, for example, FIG. 4A.
The characterization of 12ADT-Asp is described in detail below. This TG analog is even more lipophilic than TG due to substitution of the butanoyl side chain of TG with a 12 carbon aminododecanoyl side chain. While it might have been expected to see accumulation of this highly lipophilic 12ADT-Asp in tumor tissue due to PSMA activation, the magnitude of accumulation of the free drug compared to plasma was unexpected. […]

LNCaP cells [5] = test: Cleavage assay with LNCaP cells, metabolites by LC/MS; type: cell-based, human; details: 3 days culture with drug
LNCaP cells [6] = system: LNCaP cells

T1 sequence (P04191 1-994 isoform P04191-2): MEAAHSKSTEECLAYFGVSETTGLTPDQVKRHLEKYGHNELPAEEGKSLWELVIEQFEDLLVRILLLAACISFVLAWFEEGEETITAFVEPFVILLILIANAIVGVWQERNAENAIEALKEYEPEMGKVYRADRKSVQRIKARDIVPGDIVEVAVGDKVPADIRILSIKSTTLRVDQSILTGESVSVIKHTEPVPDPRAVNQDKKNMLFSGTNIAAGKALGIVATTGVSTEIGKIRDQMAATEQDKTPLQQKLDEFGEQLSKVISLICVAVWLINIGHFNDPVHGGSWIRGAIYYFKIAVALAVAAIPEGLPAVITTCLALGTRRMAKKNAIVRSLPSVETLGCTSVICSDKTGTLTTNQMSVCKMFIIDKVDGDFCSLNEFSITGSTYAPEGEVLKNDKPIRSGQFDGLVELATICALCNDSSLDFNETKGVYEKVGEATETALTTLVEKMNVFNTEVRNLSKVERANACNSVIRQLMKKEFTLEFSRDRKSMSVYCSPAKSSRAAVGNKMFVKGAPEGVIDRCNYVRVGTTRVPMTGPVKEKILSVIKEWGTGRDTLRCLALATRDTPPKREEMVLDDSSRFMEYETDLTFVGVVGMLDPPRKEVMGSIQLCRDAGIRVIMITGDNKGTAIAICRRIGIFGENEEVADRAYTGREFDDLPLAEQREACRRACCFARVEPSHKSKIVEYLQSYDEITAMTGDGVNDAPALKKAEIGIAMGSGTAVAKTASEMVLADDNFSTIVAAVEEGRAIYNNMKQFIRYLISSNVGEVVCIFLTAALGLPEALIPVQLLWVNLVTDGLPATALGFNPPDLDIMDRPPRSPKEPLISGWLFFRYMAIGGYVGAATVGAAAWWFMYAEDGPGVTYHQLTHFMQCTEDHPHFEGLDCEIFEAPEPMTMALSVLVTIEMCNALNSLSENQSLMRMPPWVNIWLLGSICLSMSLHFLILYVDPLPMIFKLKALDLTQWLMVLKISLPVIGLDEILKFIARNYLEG

Molecule: C/C=C(/C)C(=O)O[C@H]1C(C)=C2[C@H]([C@@H]1OC(=O)CCCCCCC)[C@@](C)(OC(C)=O)C[C@H](OC(=O)CCC)[C@@]1(O)[C@H]2OC(=O)[C@@]1(C)O [Thapsigargin]
Kd [1]: ≤ 0.0022 nM

stability in serum [2]: high stability in serum
Molecule: N[C@@H](CCC(=O)N[C@@H](CCC(=O)N[C@@H](CCC(=O)N[C@@H](CC(=O)O)C(=O)N[C@@H](CCC(=O)O)C(=O)O)C(=O)O)C(=O)O)C(=O)O [Glu*Glu*Glu*Asp-Glu] ({γGlu-γGlu-γGlu}-Asp-Glu-OH; N-terminus and C-terminus assumed)

stability to hydrolysis in plasma [3]: completely stable to hydrolysis
stability to hydrolysis in plasma [4]: completely stable to hydrolysis
Molecule: N[C@@H](CC(=O)O)C(=O)N[C@@H](CCC(=O)N[C@@H](CCC(=O)N[C@@H](CC(=O)O)C(=O)N[C@@H](CCC(=O)O)C(=O)O)C(=O)O)C(=O)O [Asp-Glu*Glu*Asp-Glu] (H-D[γGlu][γGlu]DE-OH; N-terminus and C-terminus assumed)

stability in serum [2]: high stability in serum
Molecule: NC(=O)CC[C@H](NC(=O)[C@H](CC(=O)O)NC(=O)CC[C@H](NC(=O)CC[C@H](NC(=O)CC[C@H](N)C(=O)O)C(=O)O)C(=O)O)C(=O)O [Glu*Glu*Glu*Asp-Gln] ({γGlu-γGlu-γGlu}-Asp-Gln-OH; N-terminus and C-terminus assumed)

Molecule: C/C=C(/C)C(=O)OC1C(C)=C2[C@H]([C@@H]1OC(=O)CCCCCCC)[C@@](C)(OC(C)=O)CC(OC(=O)CCc1cc(I)c(O)c(CCCCCNC(=O)OC(C)(C)C)c1)[C@@]1(O)[C@H]2OC(=O)[C@@]1(C)O (stereo partly shown) [compound 14]
ability to inhibit the SERCA pump (SERCA pump): maintained potent ability to inhibit the SERCA pump at nanomolar concentrations
potency of SERCA pump inhibition relative to TG (fold less potent) (SERCA pump; range of concentrations, compared to TG): approximately 4 fold

Molecule: C/C=C(/C)C(=O)O[C@H]1C(C)=C2[C@H]([C@@H]1OC(=O)CCCCCCC)[C@@](C)(OC(C)=O)C[C@H](OC(=O)CCCCCCCCCCCN)[C@@]1(O)[C@H]2OC(=O)[C@@]1(C)O [12ADT]
SERCA inhibition compared to TG (SERCA): as efficiently as does TG

Molecule: C/C=C(/C)C(=O)O[C@H]1C(C)=C2[C@H]([C@@H]1OC(=O)CCCCCCC)[C@@](C)(OC(C)=O)C[C@H](OC(=O)CCCCCCCCCCCNC(=O)C[C@H](N)C(=O)O)[C@@]1(O)[C@H]2OC(=O)[C@@]1(C)O [12ADT-Asp]
Tumor/Kidney ratio (CWR22H tumor): 15.4
Tumor/Skeletal muscle ratio (CWR22H tumor): 20.5

Molecule: C/C=C(/C)C(=O)O[C@H]1C(C)=C2[C@H]([C@@H]1OC(=O)CCCCCCC)[C@@](C)(OC(C)=O)C[C@H](OC(=O)Cc1ccc(O)c(CCCCCNC(=O)[C@H](CC(C)C)NC(=O)[C@H](CCC(N)=O)NC(=O)[C@H](CC(C)C)NC(=O)[C@H](CCCCN)NC(=O)[C@H](CO)NC(=O)[C@H](CO)NC(=O)[C@H](Cc3c[nH]cn3)NC(=O)N3CCOCC3)c1)[C@@]1(O)[C@H]2OC(=O)[C@@]1(C)O [JHD9784, His-Ser-Ser-Lys-Leu-Gln-Leu-(PhADT)] ({Morpholide-CO}-HSSKLQL-X1)
cleavage of pro-drug by LNCaP cells (LNCaP cells [5]): can cleave
IC50 (LNCaP cells [6]): 2.5 nM

Molecule: (PhADT)-Glu-yGlu-yGlu-yGlu (PhADT-E[γGlu][γGlu][γGlu]; reading uncertain) [JHD9783]
cleavage of pro-drug by LNCaP cells (LNCaP cells [5]): can cleave
